Key:
Format in all cases: cell-based
[1] = biological target: T1, short form of the GPR120 receptor (Homo sapiens, UniProt Q5NUL3); assay: Human GPR120 DiscoveRx PathHunter Beta-Arrestin assay, Procedure β-arrestin B
T1 construct: host or cells: PathHunter CHO-K1 GPR120S β-Arrestin Cell Line
Description: Human GPR120 DiscoveRx PathHunter® Beta-Arrestin Assay Assay Principle:
The binding of an agonist (medium/long chain fatty acids or small molecule agonists) to the G-protein-coupled receptor GPR120 activates phospholipase C, leading to release of intracellular Ca^+2 through the generation of inositol 1,4,5-trisphosphate (InsP3 or IP3). GPR120 activation can also trigger intracellular signaling via recruitment of Beta-Arrestin. In the present method, agonist-induced activation of the human GPR120 receptor is monitored through the use of PathHunter® CHO-K1 GPR120 Beta-Arrestin Cell Line engineered by DiscoveRx, as detailed below. The cell lines are designed to co-express both the ProLink/Enzyme Donor (PK)-tagged GPCR and the Enzyme […] (EA)-tagged Beta-Arrestin fusion proteins. Upon GPR120 receptor stimulation/activation, the EA-tagged Beta-Arrestin portion is translocated to the tagged receptor, where the two enzyme fragments are brought within close proximity. Under these conditions, these fragments can interact and form an active Beta-gal enzyme complex through Enzyme Fragment Complementation (EFC). This active Beta-gal complex can enzymatically hydrolyse the substrate to produce a detectable light signal; therefore, activation as a function of agonist concentration can be expressed as an EC50 value to determine relative compound activities. This in vitro assay therefore serves to assess compound agonist activity of the GPR120.
In Procedure β-arrestin B the cells used were PathHunter® CHO-K1 GPR120S β-Arrestin Cell Line, expressing the short form of the GPR120 receptor (Accession #[…]), with 5000 cells/well.
The selected CHO-K1 GPR120 β-Arrestin cells were cultured in Ham's F12 media supplemented with 10% fetal bovine serum (FBS), 1% Glutamine, 1×p/s, 800 μg/mL G418 and 300 μg/mL Hygromycin B (for selection). Cell stocks were maintained and grown in a sub-confluent state using standard cell culture procedures. The day before the experiment, the cells were harvested with non-enzymatic cell dissociation buffer and re-suspended in complete growth media at the desired concentration. A Corning 384-plate was then seeded with the proper number of cells in a volume of 25 μL, per well. The seeded plates were incubated overnight at 37° C.
On the day of the experiment, the Assay Buffer containing (a) HBSS with Ca^++ and Mg^++, (b) 20 mM HEPES, and (c) 0.1% BSA stabilizer (pH 7.4) was prepared. The growth medium was gently removed from the cell plates and 20 μL of Assay Buffer added to each well. The plate was then incubated at 37° C. for 60 min. Test compounds were serially diluted in Assay Buffer to desired concentrations (more particularly to one or more of the following μM concentrations: 25, 12.5, 6.25, 3.12, 1.56, 0.78, 0.39, 0.19, 0.10, 0.05, 0.02, 0.01). Five μL of compound dilution was then added to each well and the plate incubated at 37° C. for 90 min. The detection reagents were prepared according to the manufacture's instruction. Twelve μL of the detection reagents were added to each well and the plate incubated at room temperature for 60 min.
The plates were read on an EnVision instrument, using Protocol name: Luminescence, Plate type: 384 Costar, Measurement height: 3 mm, Measurement time: 1 s, Aperture: 384 Plate aperture. The % Activity relative to the positive control was calculated using the following equation:
The % Activity values were plotted versus the concentration of test compound and fitted to a sigmoidal dose-response curve with a Hill slope=1 (fixed value) using nonlinear regression with GraphPad Prism 5.0 to calculate the EC50 values. The Fitting Equation was: Y=Bottom+(Top-Bottom)/(1+10^((Log EC50−X)*HillSlope)), where X is the log of the concentration and Y is the response.

Human GPR120 short form [2] = biological target: T2, Human GPR120 short form (Homo sapiens, UniProt Q5NUL3); assay: Human GPR120 calcium flux assay, Procedure Calcium A (2500 cells/well)
T2 construct: expressed in transfected cells
T2 sequence (Q5NUL3 1-361): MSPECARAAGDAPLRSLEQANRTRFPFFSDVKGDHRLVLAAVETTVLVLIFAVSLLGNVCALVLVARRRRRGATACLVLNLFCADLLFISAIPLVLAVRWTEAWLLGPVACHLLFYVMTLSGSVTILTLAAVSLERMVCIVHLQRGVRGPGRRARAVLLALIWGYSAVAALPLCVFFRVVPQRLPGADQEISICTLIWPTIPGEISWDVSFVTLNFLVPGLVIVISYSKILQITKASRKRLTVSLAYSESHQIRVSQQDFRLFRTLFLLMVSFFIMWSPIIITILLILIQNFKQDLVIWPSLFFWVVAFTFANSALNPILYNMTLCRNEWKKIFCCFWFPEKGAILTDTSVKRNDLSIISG
Procedure, shortened: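 HEK293 cells stably expressing human GPR120 short isoform (NM_001195755.1), 2500 cells/well, serum-starved 1 h at 37 °C and loaded with Fluo-4 NW plus probenecid. FLIPR fluorescence read for 300 s after compound addition; response = Fmax−Fmin. EC50 from four-parameter concentration–response fit.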

Human GPR120 short form [3] = biological target: T2, Human GPR120 short form; assay: Human GPR120 calcium flux assay, Procedure Calcium B (4200 cells/well)
Procedure, shortened: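 Agonist EC50 came from a four-parameter fit of RFU (Fmax−Fmin) read over 300 s on FLIPR. Cells were HEK293 stably transfected with human GPR120 (NM_001195755.1) at 4200 per well, serum-starved 1 h and loaded with Fluo-4 NW dye with probenecid before ligand addition.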

human GPR40 = biological target: T3, human GPR40 (Homo sapiens, UniProt O14842); assay: GPR40 calcium flux assay, human GPR40; conditions: HEK293 cells stably expressing GPR40; table does not say human or rat
T3 construct: expressed in transfected cells
Procedure, shortened: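 Cells preincubated 1 h at 37° C. in HBSS, 20 mM HEPES, 0.1% BSA, then Fluo 8 calcium dye 30 min at 37° C. and 15 min at room temperature.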

[4] = biological target: T4, long form of human GPR120 (Homo sapiens, UniProt Q5NUL3); assay: Human GPR120 DiscoveRx PathHunter Beta-Arrestin assay, Procedure β-arrestin A
T4 construct: host or cells: PathHunter CHO-K1 GPR120 β-Arrestin Cell Line
Procedure, shortened: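 PathHunter CHO-K1 cells expressing long-form human GPR120 (3000/well) were seeded overnight. They were then preincubated 60 min in HBSS with 20 mM HEPES and 0.1% BSA, pH 7.4, and exposed to compound for 90 min at 37 °C. β-Arrestin recruitment was read as β-gal complementation luminescence. EC50 came from % activity versus positive control, Hill slope fixed at 1.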

T1 sequence (P32121 whole entry partner, one chain of several): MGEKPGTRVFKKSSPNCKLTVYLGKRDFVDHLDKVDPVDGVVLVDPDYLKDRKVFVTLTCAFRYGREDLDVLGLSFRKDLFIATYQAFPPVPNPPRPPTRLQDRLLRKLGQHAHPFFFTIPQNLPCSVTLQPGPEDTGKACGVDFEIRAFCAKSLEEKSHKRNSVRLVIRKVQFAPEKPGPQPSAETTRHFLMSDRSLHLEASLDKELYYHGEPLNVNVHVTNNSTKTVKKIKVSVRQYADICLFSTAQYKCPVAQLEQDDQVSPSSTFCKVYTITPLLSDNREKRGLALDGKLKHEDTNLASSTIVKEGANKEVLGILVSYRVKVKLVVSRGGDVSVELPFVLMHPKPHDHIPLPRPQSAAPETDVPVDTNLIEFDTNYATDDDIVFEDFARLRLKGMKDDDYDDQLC
T3 sequence (O14842 whole entry): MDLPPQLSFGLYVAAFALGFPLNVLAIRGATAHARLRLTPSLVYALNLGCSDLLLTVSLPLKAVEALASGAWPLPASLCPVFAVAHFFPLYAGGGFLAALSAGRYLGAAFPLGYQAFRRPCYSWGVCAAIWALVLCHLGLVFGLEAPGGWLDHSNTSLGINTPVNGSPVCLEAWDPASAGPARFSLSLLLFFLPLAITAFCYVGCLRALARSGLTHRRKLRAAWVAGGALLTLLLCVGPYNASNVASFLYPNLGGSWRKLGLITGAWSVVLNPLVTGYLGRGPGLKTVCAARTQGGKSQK
T4 sequence (Q5NUL3 1-377 isoform Q5NUL3-1): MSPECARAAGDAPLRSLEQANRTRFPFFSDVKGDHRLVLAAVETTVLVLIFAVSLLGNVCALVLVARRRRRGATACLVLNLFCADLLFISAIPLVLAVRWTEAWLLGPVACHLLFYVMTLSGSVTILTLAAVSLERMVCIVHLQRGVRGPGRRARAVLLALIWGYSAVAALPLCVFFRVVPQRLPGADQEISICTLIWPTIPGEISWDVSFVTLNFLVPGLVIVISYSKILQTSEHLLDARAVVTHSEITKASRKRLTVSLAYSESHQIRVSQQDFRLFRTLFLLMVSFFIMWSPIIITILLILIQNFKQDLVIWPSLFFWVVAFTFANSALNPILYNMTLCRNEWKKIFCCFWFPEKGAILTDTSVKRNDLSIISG
T4 sequence (P32121 whole entry partner): as the sequence (P32121 whole entry partner, one chain of several) above

SMILES | EC50 [1] [nM] | EC50 (Human GPR120 short form [2]) [nM] | EC50 (Human GPR120 short form [3]) [nM] | EC50 (human GPR40) [nM] | EC50 [4] [nM]
Cc1c(CCC(=O)O)ccc(OCC2=C(c3ccc(Br)cc3)CCC2)c1C [Compound 56, 3-[4-[[2-(4-bromophenyl)cyclopenten-1-yl]methoxy]-2,3-dimethyl-phenyl]Propanoic Acid] | 85 | 324 | 37 |  | 
CSc1ccc(C2=C(COc3ccc(CCC(=O)O)c(C)c3C)CCC2)cc1 [Compound 50, 3-[2,3-dimethyl-4-[[2-(4-methylsulfanylphenyl)cyclopenten-1-yl]methoxy]phenyl]Propanoic Acid] | 709 | 409 | 183 |  | 
Cc1c(CCC(=O)O)ccc(OCC2=C(c3ccc(C(F)(F)F)cc3)CCC2)c1C [Compound 75, 3-[2,3-dimethyl-4-[[2-[4-(trifluoromethyl)phenyl]cyclopenten-1-yl]methoxy]phenyl]Propanoic Acid] | 171 | 591 | 195 |  | 
Cc1c(CCC(=O)O)ccc(OCC2=C(c3ccc(I)cc3)CCC2)c1C [Compound 57, 3-[4-[[2-(4-iodophenyl)cyclopenten-1-yl]methoxy]-2,3-dimethyl-phenyl]Propanoic Acid] | 258 | 527 | 50 |  | 
Cc1c(CCC(=O)O)ccc(OCC2=C(c3ccc(C(C)C)cc3)CCC2)c1C [Compound 55, 3-[4-[[2-(4-isopropylphenyl)cyclopenten-1-yl]methoxy]-2,3-dimethyl-phenyl]Propanoic Acid] | 246 | 793 | 282 |  | 
Cc1c(CCC(=O)O)ccc(OCC2=C(c3ccc(C(F)(F)F)cc3)CCCC2)c1C [Compound 460, 3-[2,3-dimethyl-4-[[2-[4-(trifluoromethyl)phenyl]cyclohexen-1-yl]methoxy]phenyl]Propanoic Acid] | 625 | 1010 | 385 |  | 
O=C(O)CCc1ccc(OCC2=C(c3ccc(Cl)cc3)CCC2)c(I)c1 [Compound 130, 3-[3-iodo-4-[[2-(4-chlorophenyl)cyclopenten-1-yl]methoxy]phenyl]Propanoic Acid] | 41 |  | 34 | > 5000 | 87
[2H]C(C(=O)O)C([2H])c1ccc(OCC2=C(c3ccc(Cl)cc3)CCC2)c(C)c1 (centres unmarked) [Compound 126-D, 3-(4-((2-(4-chlorophenyl)cyclopent-1-en-1-yl)methoxy)-3-methylphenyl)Propanoic-2,3-d2 Acid] | 45 |  | 10 | > 5000 | 35
Cc1ccc(C2=C(COc3ccc(CCC(=O)O)c(C)c3C)CCCC2)cc1 [Compound 462, 3-[2,3-dimethyl-4-[[2-(p-tolyl)cyclohexen-1-yl]methoxy]phenyl]Propanoic Acid] | 478 | 462 | 66 |  | 

The remaining lines, values ahead:

EC50 [1] [nM] | EC50 (Human GPR120 short form [2]) [nM] | EC50 (Human GPR120 short form [3]) [nM] | EC50 (human GPR40) [nM] | EC50 [4] [nM] | SMILES
475 | 250 | 134 |  |  | Cc1c(CCC(=O)O)ccc(OCC2=C(c3ccc(Br)cc3)CCCC2)c1C [Compound 481, 3-[4-[[2-(4-bromophenyl)cyclohexen-1-yl]methoxy]-2,3-dimethyl-phenyl]Propanoic Acid]
385 | 234 | 79 |  |  | Cc1c(CCC(=O)O)ccc(OCC2=C(c3ccc(F)cc3)CCCC2)c1C [Compound 480, 3-[4-[[2-(4-fluorophenyl)cyclohexen-1-yl]methoxy]-2,3-dimethyl-phenyl]Propanoic Acid]
126 | 406 | 91 |  |  | Cc1c(CCC(=O)O)ccc(OCC2=C(c3cccs3)CCCC2)c1C [Compound 482, 3-[2,3-dimethyl-4-[[2-(2-thienyl)cyclohexen-1-yl]methoxy]phenyl]Propanoic Acid]
717 | 576 | 185 |  |  | CSc1ccc(C2=C(COc3ccc(CCC(=O)O)c(C)c3C)CCCC2)cc1 [Compound 492, 3-[2,3-dimethyl-4-[[2-(4-methylsulfanylphenyl)cyclohexen-1-yl]methoxy]phenyl]Propanoic Acid]

From US11230526B1, “Cylcoalkenyl derivatives useful as agonists of the GPR120 and/or GPR40 receptors” (Janssen Pharmaceutica NV, priority 2018, dated 2022)
